The record followed here is US10988478B1, “Pyrazolo[1,5a]pyrimidine derivatives as IRAK4 modulators” (Genentech, Inc., priority 2015, dated 2021).

SMILES strings stand for the structures.

human IRAK4, sequence (Q9NWZ3 whole entry, the tested form may be a part): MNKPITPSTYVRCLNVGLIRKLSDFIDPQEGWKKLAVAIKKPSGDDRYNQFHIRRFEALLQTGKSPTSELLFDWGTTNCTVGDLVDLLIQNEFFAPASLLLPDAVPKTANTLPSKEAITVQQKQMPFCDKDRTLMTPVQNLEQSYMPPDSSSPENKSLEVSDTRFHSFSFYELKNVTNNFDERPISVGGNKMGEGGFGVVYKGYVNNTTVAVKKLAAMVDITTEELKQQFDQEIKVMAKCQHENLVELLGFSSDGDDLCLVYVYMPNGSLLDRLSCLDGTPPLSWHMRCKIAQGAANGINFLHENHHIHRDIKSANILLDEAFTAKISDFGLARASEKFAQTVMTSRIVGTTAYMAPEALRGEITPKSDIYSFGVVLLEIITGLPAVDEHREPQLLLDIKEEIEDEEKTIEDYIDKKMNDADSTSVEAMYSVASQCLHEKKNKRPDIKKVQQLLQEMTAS

The assay deals with human IRAK4 (Homo sapiens (Human), UniProt Q9NWZ3). The assay can be described thus: IRAK4 kinase inhibition, Transcreener fluorescence polarization ADP assay. It counts as biochemical. Particulars: recombinant full-length His6-IRAK4; 125 uM ATP; 90 min; Ki computed using ATP Km 642 uM. As for the experimental part:
Compounds were assayed for inhibition of human IRAK4 and IRAK1 catalytic activity using recombinant enzyme produced from insect cells. Full-length IRAK4 protein, carrying an N-terminal His6-Tag, was obtained from Life Technologies (Carlsbad, Calif., USA). The IRAK1 construct was produced internally and was comprised of IRAK1 residues Arg194 to Ser712, preceded by an NH2-terminal His6 tag and the coding sequence for glutathione-S-transferase.
In the case of `CC1(C)Cc2cc(NC(=O)c3cnn4cccnc34)c(N3CCC4(CCOC4)CC3)cc2O1` [Example 106, N-(2,2-dimethyl-6-(2-oxa-8-azaspiro[4.5]decan-8-yl)-2,3-dihydrobenzofuran-5-yl)pyrazolo[1,5-a]pyrimidine-3-carboxamide], the Ki is 2.4 nM. As for `CC1(C)Cc2cc(NC(=O)c3cnn4cccnc34)c(N3CCC4(COC4)C3)cc2O1` [Example 107, N-(2,2-dimethyl-6-(2-oxa-6-azaspiro[3.4]octan-6-yl)-2,3-dihydrobenzofuran-5-yl)pyrazolo[1,5-a]pyrimidine-3-carboxamide], the figure is 79 nM; as for `CC1(C)Cc2cc(NC(=O)c3cnn4cccnc34)c(N3CCC4(CCOC4)C3)cc2O1` (stereo not drawn) [Example 108, N-(2,2-dimethyl-6-(2-oxa-7-azaspiro[4.4]nonan-7-yl)-2,3-dihydrobenzofuran-5-yl)pyrazolo[1,5-a]pyrimidine-3-carboxamide], 79 nM.

For the molecule `CC1(C)Cc2cc(NC(=O)c3cnn4cccnc34)c(N3CCC4(CCCC4O)CC3)cc2O1` (stereo not drawn) [Example 109, N-(6-(1-hydroxy-8-azaspiro[4.5]decan-8-yl)-2,2-dimethyl-2,3-dihydrobenzofuran-5-yl)pyrazolo[1,5-a]pyrimidine-3-carboxamide], the Ki is 4.2 nM. As for `CC1(C)Cc2cc(NC(=O)c3cnn4cccnc34)c(N3CCC4(CC3)CC(O)C4)cc2O1` [Example 110, N-(6-(2-hydroxy-7-azaspiro[3.5]nonan-7-yl)-2,2-dimethyl-2,3-dihydrobenzofuran-5-yl)pyrazolo[1,5-a]pyrimidine-3-carboxamide], the figure is 2.5 nM; as for `CC1(C)Cc2cc(NC(=O)c3cnn4cccnc34)c(N3CCC4(CC3)CNC4=O)cc2O1` [Example 111, N-[2,2-dimethyl-6-(3-oxo-2,7-diazaspiro[3.5]nonan-7-yl)-3H-benzofuran-5-yl]pyrazolo[1,5-a]pyrimidine-3-carboxamide], 4.8 nM. For `CC1(C)Cc2cc(NC(=O)c3cnn4cccnc34)c(N3CC4C(C3)C4(F)F)cc2O1` (stereo not drawn) [Example 112, N-(6-(6,6-difluoro-3-azabicyclo[3.1.0]hexan-3-yl)-2,2-dimethyl-2,3-dihydrobenzofuran-5-yl)pyrazolo[1,5-a]pyrimidine-3-carboxamide], the Ki is 78 nM. Turning to `CC1(C)Cc2cc(NC(=O)c3cnn4cccnc34)c(-c3ccc(=O)[nH]c3)cc2O1` [Example 113, N-[2,2-Dimethyl-6-(6-oxo-1H-pyridin-3-yl)-3H-benzofuran-5-yl]pyrazolo[1,5-a]pyrimidine-3-carboxamide], the Ki was determined as 320 nM.

As for `CC1(C)Cc2cc(NC(=O)c3cnn4cccnc34)c(N3CCC4(CC3)COC4)cc2O1` [Example 114, N-(2,2-Dimethyl-6-(2-oxa-7-azaspiro[3.5]nonan-7-yl)-2,3-dihydrobenzofuran-5-yl)pyrazolo[1,5-a]pyrimidine-3-carboxamide], the Ki was 17 nM. Under `CC1(C)Cc2cc(NC(=O)c3cnn4cccnc34)c(N3CCC(O)C(F)C3)cc2O1` (stereo not drawn) [Example 115, N-(6-(3-Fluoro-4-hydroxypiperidin-1-yl)-2,2-dimethyl-2,3-dihydrobenzofuran-5-yl)pyrazolo[1,5-a]pyrimidine-3-carboxamide] stands 9.5 nM; under `CC1(C)Cc2cc(NC(=O)c3cnn4cccnc34)c(N3CCCNCC3)cc2O1` [Example 116, N-(6-(1,4-diazepan-1-yl)-2,2-dimethyl-2,3-dihydrobenzofuran-5-yl)pyrazolo[1,5-a]pyrimidine-3-carboxamide], 18 nM. Under `CC1(C)Cc2cc(NC(=O)c3cnn4cccnc34)c(N3CCCOCC3)cc2O1` [Example 117, N-(2,2-dimethyl-6-(1,4-oxazepan-4-yl)-2,3-dihydrobenzofuran-5-yl)pyrazolo[1,5-a]pyrimidine-3-carboxamide] stands 17 nM; under `CC1(C)Cc2cc(NC(=O)c3cnn4cccnc34)c(N3CCOCC3)cc2S1(=O)=O` [Example 118, N-[2,2-Dimethyl-6-(morpholin-4-yl)-1,1-dioxo-2,3-dihydro-benzothiophen-5-yl]pyrazolo[1,5-a]pyrimidine-3-carboxamide], 14 nM; under `C[C@@]1(CO)Cc2cc(NC(=O)c3cnn4cccnc34)c(N3CCC(F)(F)CC3)cc2O1` [Example 121, (S)—N-(6-(4,4-Difluoropiperidin-1-yl)-2-(hydroxymethyl)-2-methyl-2,3-dihydrobenzofuran-5-yl)pyrazolo[1,5-a]pyrimidine-3-carboxamide], 16 nM.

Turning to `C[C@]1(CO)Cc2cc(NC(=O)c3cnn4cccnc34)c(N3CCC(F)(F)CC3)cc2O1` [Example 122, (R)—N-(6-(4,4-difluoropiperidin-1-yl)-2-(hydroxymethyl)-2-methyl-2,3-dihydrobenzofuran-5-yl)pyrazolo[1,5-a]pyrimidine-3-carboxamide], the Ki came out at 6 nM.

Take `C[C@]1(CO)Cc2cc(NC(=O)c3cnn4cccnc34)c(N3CCC4(CCOC4)CC3)cc2O1` [Example 125, (R)—N-(2-(Hydroxymethyl)-2-methyl-6-(2-oxa-8-azaspiro[4.5]decan-8-yl)-2,3-dihydrobenzofuran-5-yl)pyrazolo[1,5-a]pyrimidine-3-carboxamide]: the inhibition constant (Ki) was 5 nM. As to `C[C@@]1(CO)Cc2cc(NC(=O)c3cnn4cccnc34)c(N3CCC4(CCOC4)CC3)cc2O1` [Example 126, (S)—N-(2-(hydroxymethyl)-2-methyl-6-(2-oxa-8-azaspiro[4.5]decan-8-yl)-2,3-dihydrobenzofuran-5-yl)pyrazolo[1,5-a]pyrimidine-3-carboxamide], the Ki stood at 5.7 nM. Consider `C[C@]1(CO)Cc2cc(NC(=O)c3cnn4cccnc34)c(N3CCC(CO)CC3)cc2O1` [Example 129, (R)—N-(2-(Hydroxymethyl)-6-(4-(hydroxymethyl)piperidin-1-yl)-2-methyl-2,3-dihydrobenzofuran-5-yl)pyrazolo[1,5-a]pyrimidine-3-carboxamide], for which the Ki stood at 3.2 nM. Under `C[C@@]1(CO)Cc2cc(NC(=O)c3cnn4cccnc34)c(N3CCC(CO)CC3)cc2O1` [Example 130, (S)—N-(2-(hydroxymethyl)-6-(4-(hydroxymethyl)piperidin-1-yl)-2-methyl-2,3-dihydrobenzofuran-5-yl)pyrazolo[1,5-a]pyrimidine-3-carboxamide] stands 3.3 nM; under `C[C@@]1(CO)Cc2cc(NC(=O)c3cnn4cc(F)cnc34)c(N3CCN(CC(F)F)CC3)cc2O1` [Example 132, (S)—N-(6-(4-(2,2-Difluoroethyl)piperazin-1-yl)-2-(hydroxymethyl)-2-methyl-2,3-dihydrobenzofuran-5-yl)-6-fluoropyrazolo[1,5-a]pyrimidine-3-carboxamide], 4.8 nM; under `C[C@]1(CO)Cc2cc(NC(=O)c3cnn4cc(F)cnc34)c(N3CCN(CC(F)F)CC3)cc2O1` [Example 133, (R)—N-(6-(4-(2,2-Difluoroethyl)piperazin-1-yl)-2-(hydroxymethyl)-2-methyl-2,3-dihydrobenzofuran-5-yl)-6-fluoropyrazolo[1,5-a]pyrimidine-3-carboxamide], 4.1 nM. In the case of `CC1(C)Cc2cc(NC(=O)c3cnn4cccnc34)c(N3CCN(C(C)(C)CO)CC3)cc2O1` [Example 137, N-[6-[4-(2-Hydroxy-1,1-dimethyl-ethyl)piperazin-1-yl]-2,2-dimethyl-3H-benzofuran-5-yl]pyrazolo[1,5-a]pyrimidine-3-carboxamide], the Ki turned out to be 170 nM.

Regarding `CC(C)N1Cc2cc(NC(=O)c3cnn4cccnc34)c(N3CCOCC3)cc2C1=O` [Example 138, N-(2-Isopropyl-6-morpholino-1-oxoisoindolin-5-yl)pyrazolo[1,5-a]pyrimidine-3-carboxamide], the Ki was 6.8 nM. As for `CC(C)(O)[C@H](F)CN1Cc2cc(NC(=O)c3cnn4cccnc34)c(N3CCOCC3)cc2C1=O` [Example 139, (R)—N-(2-(2-Fluoro-3-hydroxy-3-methylbutyl)-6-morpholino-1-oxoisoindolin-5-yl)pyrazolo[1,5-a]pyrimidine-3-carboxamide], the figure is 1.5 nM; as for `CN1Cc2cc(NC(=O)c3cnn4cccnc34)c(N3CCOCC3)cc2C1=O` [Example 140, N-(2-Methyl-6-morpholino-1-oxoisoindolin-5-yl)pyrazolo[1,5-a]pyrimidine-3-carboxamide], 26 nM. As for `CC1(CO)CCc2cc(NC(=O)c3cnn4cccnc34)c(N3CCOCC3)cc2O1` (stereo not drawn) [Example 141, N-(2-(Hydroxymethyl)-2-methyl-7-morpholinochroman-6-yl)pyrazolo[1,5-a]pyrimidine-3-carboxamide], the figure is 16 nM; as for `O=C(Nc1cc2c(cc1N1CCOCC1)OC1(CCNCC1)C2)c1cnn2cccnc12` [Example 142, N-(6-Morpholinospiro[3H-benzofuran-2,4′-piperidine]-5-yl)pyrazolo[1,5-a]pyrimidine-3-carboxamide], 20 nM; as for `CC1(C)Cc2cc(NC(=O)c3cnn4cccnc34)c(N3CCOCC3)c(C#N)c2O1` [Example 143, N-(7-Cyano-2,2-dimethyl-6-morpholino-2,3-dihydrobenzofuran-5-yl)pyrazolo[1,5-a]pyrimidine-3-carboxamide], 740 nM. As for `Cc1cnc2c(C(=O)Nc3cc4c(cc3N3CCOCC3)OC(C)(C(F)F)C4)cnn2c1` (stereo not drawn) [Example 144, N-(2-(Difluoromethyl)-2-methyl-6-morpholino-2,3-dihydrobenzofuran-5-yl)-6-methylpyrazolo[1,5-a]pyrimidine-3-carboxamide], the figure is 13 nM; as for `CCOP(=O)(OCC)OCC1CCN(c2cc3c(cc2NC(=O)c2cnn4cccnc24)CC(C)(C)O3)CC1` [Example 145, [1-[2,2-Dimethyl-5-(pyrazolo[1,5-a]pyrimidine-3-carbonylamino)-3H-benzofuran-6-yl]-4-piperidyl]methyl diethyl phosphate], 130 nM.
